Earlier results, collected in patent US20070225217A1, “Methods, compositions, and kits for the treatment of medical conditions” (CombinatoRx, Incorporated, priority 2005, published 2007).

absorption after oral administration: absorbed rapidly and completely
Compound: CO[C@H]1C[C@@H]2CC[C@@H](C)[C@@](O)(O2)C(=O)C(=O)N2CCCC[C@H]2C(=O)O[C@H]([C@H](C)C[C@@H]2CC[C@@H](O)[C@H](OC)C2)CC(=O)[C@H](C)/C=C(\C)[C@@H](O)[C@@H](OC)C(=O)[C@H](C)C[C@H](C)/C=C/C=C/C=C/1C [Rapamycin]
